Source: patent US6737383B1, “Herbicidal oxadiazolidines” (priority 1999, dated 2004)

Tests used:
pigweed = assay: Test B pre/postemergence pigweed; assay type: in vivo, Amaranthus retroflexus
Outline: (§1)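 Test chemicals in a non-phytotoxic solvent mixture with surfactant were sprayed preemergence onto planted seeds and postemergence onto plants 2 to 18 cm tall (1- to 4-leaf stage). After twelve to sixteen days in a greenhouse, injury was visually rated against untreated controls from 0 (no effect) to 10 (complete control).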

velvetleaf = assay: Test B pre/postemergence velvetleaf; assay type: in vivo, Abutilon theophrasti
Outline: as §1

crabgrass = assay: Test B pre/postemergence crabgrass; assay type: in vivo, Digitaria sanguinalis
Outline: as §1

wheat = assay: Test B pre/postemergence wheat; assay type: in vivo, Triticum aestivum
Outline: as §1

purple nutsedge = assay: Test B pre/postemergence purple nutsedge; assay type: in vivo, Cyperus rotundus
Outline: as §1

giant foxtail = assay: Test B pre/postemergence giant foxtail; assay type: in vivo, Setaria faberii
Outline: as §1

duck salad = assay: Test B flood test duck salad; assay type: in vivo, Heteranthera limosa
Outline: (§2)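 Plants were grown to the 2-leaf stage before treatment with test chemical, then held in a greenhouse for twelve to sixteen days. Injury was visually rated against untreated controls on a 0–10 scale, where 0 is no effect and 10 is complete control.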

surinam grass = assay: Test B pre/postemergence surinam grass; assay type: in vivo, Brachiaria decumbens
Outline: as §1

morningglory = assay: Test B pre/postemergence morningglory; assay type: in vivo, Ipomoea hederacea
Outline: as §1

blackgrass = assay: Test B pre/postemergence blackgrass; assay type: in vivo, Alopecurus myosuroides
Outline: as §1

rice = assay: Test B flood test rice; assay type: in vivo, Oryza sativa
Outline: as §2

rape = assay: Test B pre/postemergence rape; assay type: in vivo, Brassica napus
Outline: as §1

sugar beet = assay: Test B pre/postemergence sugar beet; assay type: in vivo, Beta vulgaris
Outline: as §1

corn = assay: Test B pre/postemergence corn; assay type: in vivo, Zea mays
Outline: as §1

cocklebur = assay: Test B pre/postemergence cocklebur; assay type: in vivo, Xanthium strumarium
Outline: as §1

smallflower flatsedge = assay: Test B flood test smallflower flatsedge; assay type: in vivo, Cyperus difformis
Outline: as §2

[1] = Postemergence, Rate 62 g/ha, scale 0 to 10, 0 is no effect, 10 is complete control
[2] = Postemergence, Rate 250 g/ha, scale 0 to 10, 0 no effect, 10 complete control
[3] = Preemergence, Rate 31 g/ha, visual rating, scale 0 to 10 (0 no effect, 10 complete control)
[4] = Preemergence, Rate 62 g/ha, scale 0 to 10, 0 is no effect, 10 is complete control
[5] = Preemergence, Rate 125 g/ha, scale 0 to 10 (0 no effect, 10 complete control)
[6] = Preemergence, Rate 250 g/ha, scale of 0 to 10 where 0 is no effect and 10 is complete control
[7] = Rate 31 g/ha, Postemergence, scale 0 to 10
[8] = Rate 125 g/ha, Postemergence, scale 0 to 10, 0 no effect, 10 complete control
[9] = Rate 31 g/ha, Postemergence section (flood test species), scale 0 to 10
[10] = Rate 125 g/ha, Postemergence section (flood test species), scale 0 to 10, 0 no effect, 10 complete control
[11] = flood test, listed under Postemergence, Rate 250 g/ha, scale 0 to 10, 0 no effect, 10 complete control

**Q.** Which results are given for CCN(C(=O)n1oc(=O)n(-c2ccc(F)cc2F)c1=O)C1CCCCC1 [Compound 23]?
**A.** Redroot pigweed plant response rating (pigweed; [1]): 0; Redroot pigweed plant response rating (pigweed; [2]): 0; Redroot pigweed plant response rating (pigweed; [3]): 0; Plant response rating, Redroot pigweed (pigweed; [4]): 0; Plant response rating, Redroot pigweed (pigweed; [5]): 0; Plant response rating, Redroot pigweed (pigweed; [6]): 0; Redroot pigweed plant response rating (pigweed; [7]): 0; Redroot pigweed plant response rating (pigweed; [8]): 0; Velvetleaf plant response rating (velvetleaf; [1]): 0; Velvetleaf plant response rating (velvetleaf; [2]): 0; Velvetleaf plant response rating (velvetleaf; [3]): 0; Plant response rating, Velvetleaf (velvetleaf; [4]): 0; Plant response rating, Velvetleaf (velvetleaf; [5]): 0; Plant response rating, Velvetleaf (velvetleaf; [6]): 0; Velvetleaf plant response rating (velvetleaf; [8]): 0; Crabgrass plant response rating (crabgrass; [1]): 0; Crabgrass plant response rating (crabgrass; [2]): 6; Crabgrass plant response rating (crabgrass; [3]): 0; Plant response rating, Crabgrass (crabgrass; [4]): 3; Plant response rating, Crabgrass (crabgrass; [5]): 3; Plant response rating, Crabgrass (crabgrass; [6]): 3; Crabgrass plant response rating (crabgrass; [7]): 0; Crabgrass plant response rating (crabgrass; [8]): 1; Wheat plant response rating (wheat; [1]): 0; Wheat plant response rating (wheat; [2]): 0; Wheat plant response rating (wheat; [3]): 0; Plant response rating, Wheat (wheat; [4]): 0; Plant response rating, Wheat (wheat; [5]): 0; Plant response rating, Wheat (wheat; [6]): 0; Wheat plant response rating (wheat; [8]): 0; Nutsedge plant response rating (purple nutsedge; [1]): 0; Nutsedge plant response rating (purple nutsedge; [2]): 0; Nutsedge plant response rating (purple nutsedge; [3]): 0; Plant response rating, Nutsedge (purple nutsedge; [4]): 0; Plant response rating, Nutsedge (purple nutsedge; [5]): 0; Plant response rating, Nutsedge (purple nutsedge; [6]): 0; Nutsedge plant response rating (purple nutsedge; [7]): 0; Nutsedge plant response rating (purple nutsedge; [8]): 0; Giant foxtail plant response rating (giant foxtail; [1]): 0; Giant foxtail plant response rating (giant foxtail; [2]): 2; Giant foxtail plant response rating (giant foxtail; [3]): 1; Plant response rating, Giant foxtail (giant foxtail; [4]): 2; Plant response rating, Giant foxtail (giant foxtail; [5]): 2; Plant response rating, Giant foxtail (giant foxtail; [6]): 3; Giant foxtail plant response rating (giant foxtail; [7]): 0; Giant foxtail plant response rating (giant foxtail; [8]): 2; Ducksalad plant response rating (duck salad; [1]): 0; Ducksalad plant response rating (duck salad; [9]): 0; Ducksalad plant response rating (duck salad; [10]): 0; Ducksalad plant response rating (duck salad; [11]): 0; B. signalgrass plant response rating (surinam grass; [1]): 0; B. signalgrass plant response rating (surinam grass; [2]): 0; B. signalgrass plant response rating (surinam grass; [3]): 0; Plant response rating, B. signalgrass (surinam grass; [4]): 0; Plant response rating, B. signalgrass (surinam grass; [5]): 0; Plant response rating, B. signalgrass (surinam grass; [6]): 0; B. signalgrass plant response rating (surinam grass; [7]): 0; B. signalgrass plant response rating (surinam grass; [8]): 0; Morningglory plant response rating (morningglory; [1]): 1; Morningglory plant response rating (morningglory; [2]): 10; Morningglory plant response rating (morningglory; [3]): 0; Plant response rating, Morningglory (morningglory; [4]): 0; Plant response rating, Morningglory (morningglory; [5]): 0; Plant response rating, Morningglory (morningglory; [6]): 0; Morningglory plant response rating (morningglory; [7]): 0; Morningglory plant response rating (morningglory; [8]): 8; Blackgrass plant response rating (blackgrass; [1]): 0; Blackgrass plant response rating (blackgrass; [2]): 0; Blackgrass plant response rating (blackgrass; [3]): 0; Plant response rating, Blackgrass (blackgrass; [4]): 0; Plant response rating, Blackgrass (blackgrass; [5]): 1; Plant response rating, Blackgrass (blackgrass; [6]): 2; Blackgrass plant response rating (blackgrass; [7]): 0; Blackgrass plant response rating (blackgrass; [8]): 0; Rice plant response rating (rice; [1]): 0; Rice plant response rating (rice; [9]): 0; Rice plant response rating (rice; [10]): 0; Rice plant response rating (rice; [11]): 0; Rape plant response rating (rape; [1]): 0; Rape plant response rating (rape; [2]): 0; Rape plant response rating (rape; [3]): 0; Plant response rating, Rape (rape; [4]): 0; Plant response rating, Rape (rape; [5]): 0; Plant response rating, Rape (rape; [6]): 0; Rape plant response rating (rape; [7]): 0; Rape plant response rating (rape; [8]): 0; Sugarbeets plant response rating (sugar beet; [1]): 0; Sugarbeets plant response rating (sugar beet; [2]): 0; Sugarbeets plant response rating (sugar beet; [3]): 0; Plant response rating, Sugarbeets (sugar beet; [4]): 0; Plant response rating, Sugarbeets (sugar beet; [5]): 0; Plant response rating, Sugarbeets (sugar beet; [6]): 0; Sugarbeets plant response rating (sugar beet; [8]): 0; Corn plant response rating (corn; [1]): 0; Corn plant response rating (corn; [2]): 0; Corn plant response rating (corn; [3]): 0; Plant response rating, Corn (corn; [4]): 0; Plant response rating, Corn (corn; [5]): 0; Plant response rating, Corn (corn; [6]): 0; Corn plant response rating (corn; [7]): 0; Corn plant response rating (corn; [8]): 0; Cocklebur plant response rating (cocklebur; [1]): 0; Cocklebur plant response rating (cocklebur; [2]): 0; Cocklebur plant response rating (cocklebur; [3]): 0; Plant response rating, Cocklebur (cocklebur; [4]): 0; Plant response rating, Cocklebur (cocklebur; [5]): 0; Cocklebur plant response rating (cocklebur; [7]): 0; Cocklebur plant response rating (cocklebur; [8]): 0; S. Flatsedge plant response rating (smallflower flatsedge; [1]): 0; S. Flatsedge plant response rating (smallflower flatsedge; [10]): 0; S. Flatsedge plant response rating (smallflower flatsedge; [11]): 0
